Results: ChEMBL document CHEMBL5107971, “RpoN-Based stapled peptides with improved DNA binding suppress Pseudomonas aeruginosa virulence” (RSC Med Chem, 2022)
Activity calls are given as the source filed them. No cut-off for these calls is given here. Numbered stars: 1 amine (or outer) side, 2 acyl side, 3 side chain; on linkers, the order of the positions; unused ones are H or OH. Bridge positions count the residues as written; N and C are the ends. Square brackets hold non-standard residues; d marks the D form. Peptide text beside a SMILES is read from it. X1 = CC(C)[C@@H](CN[*:1])C(=O)[*:2]; S5 = C=CCCC[C@](C)(N)C(=O)O; Nle = CCCC[C@H](N)C(=O)O; Orn = NCCC[C@H](N)C(=O)O; βAla = NCCC(=O)O

Columns and labels:
DNA [1] = assay: Inhibition of RpoN-mediated GlnAp2 transcription in Escherichia coli XL-1 Blue expressing GFP assessed as decrease in GFP levels at 10 uM incubated for 4 hrs under minimal nitrogen media by fluorescence based assay relative to control; type: nucleic-acid assay
[2] = Hemolytic activity in human RBC at 100 uM measured after 1 hrs relative to control; type: toxicity, cell-based, Erythrocyte; details: red blood cells (erythrocytes), read-out: Activity
Pseudomonas aeruginosa [3] = assay: Antibacterial activity against Pseudomonas aeruginosa assessed as inhibition of cell growth upto 32 ug/ml incubated overnight by microtiter broth dilution assay; type: functional; details: dose <= 32 µg/ml
[4] = Toxicity in Galleria mellonella larvae assessed as survivability at 10 mg/kg administered intra-hemocoelicly and measured after 24 hrs; type: organism-based; details: in vivo, other
dsDNA = assay: Binding affinity to FITC-labelled dsDNA (unknown origin) assessed as dissociation constant incubated for 10 mins by fluorescence polarization assay; type: nucleic-acid assay
Pseudomonas aeruginosa [5] = assay: Antibacterial activity against Pseudomonas aeruginosa infected in Galleria mellonella larvae assessed as enhancement of survival rate at 10 mg/kg administered intra-hemocoelicly and measured after 24 hrs relative to control; type: functional
Pseudomonas aeruginosa [6] = assay: Antibacterial activity against Pseudomonas aeruginosa infected in Galleria mellonella larvae assessed as enhancement of survival rate at 10 mg/kg administered intra-hemocoelicly and measured after 36 hrs relative to control; type: functional
DNA [7] = assay: Binding affinity to Escherichia coli GlnAp2 labelled with FITC assessed as dissociation constant incubated for 10 mins by fluorescence polarization assay; type: nucleic-acid assay

Row | Compound | inhibition (DNA [1]) | hemolysis at 1 h, 100 µM [2] [%] | MIC (Pseudomonas aeruginosa [3]) [µg/mL] | Activity [4] | Kd (dsDNA) [nM] | Activity (Pseudomonas aeruginosa [5]) | Activity (Pseudomonas aeruginosa [6]) [%] | Kd (DNA [7]) [nM]
1 | CCCC[C@H](NC(=O)[C@H](CCC(=O)O)NC(=O)[C@H](CCCNC(=N)N)NC(=O)[C@H](Cc1ccc(O)cc1)NC(=O)[C@H](CCCCN)NC(=O)[C@H](C)NC(=O)[C@]1(C)CCC/C=C\CCC[C@](C)(NC(=O)[C@H](C)NC(=O)[C@H](CCCCN)NC(=O)[C@H](Cc2ccccc2)NC(=O)CCNC(C)=O)C(=O)N[C@@H](CCCNC(=N)N)C(=O)N[C@@H](CCCNC(=N)N)C(=O)N[C@@H]([C@@H](C)O)C(=O)N1)C(=O)N[C@@H](CC(C)C)C(N)=O (Ac-[βAla]FKA[S5]RRT[S5]AKYRE[Nle]L-NH2; staple (Z) 5-9) | Active | – | – | – | – | – | – | –
2 | CCCC[C@H](NC(=O)[C@H](CCC(=O)O)NC(=O)[C@H](CCCNC(=N)N)NC(=O)[C@H](Cc1ccc(O)cc1)NC(=O)[C@H](CCCCN)NC(=O)[C@@H](NC(=O)[C@]1(C)CCC/C=C\CCC[C@](C)(NC(=O)[C@H](C)NC(=O)[C@H](CCCCN)NC(=O)[C@H](Cc2ccccc2)NC(=O)CCNC(C)=O)C(=O)N[C@@H](CCCNC(=N)N)C(=O)N[C@@H](CCCNC(=N)N)C(=O)N[C@@H]([C@@H](C)O)C(=O)N1)C(C)C)C(=O)N[C@@H](CC(C)C)C(N)=O (Ac-[βAla]FKA[S5]RRT[S5]VKYRE[Nle]L-NH2; staple (Z) 5-9) | Active | – | – | – | – | – | – | –
3 | CCCC[C@H](NC(=O)[C@H](CCC(=O)O)NC(=O)[C@H](CCCNC(=N)N)NC(=O)[C@H](Cc1ccc(O)cc1)NC(=O)[C@H](CCCNC(=N)N)NC(=O)[C@H](C)NC(=O)[C@]1(C)CCC/C=C\CCC[C@](C)(NC(=O)[C@@H](NC(=O)[C@H](CCCCN)NC(=O)[C@H](Cc2ccccc2)NC(=O)CCNC(C)=O)C(C)C)C(=O)N[C@@H](CCCNC(=N)N)C(=O)N[C@@H](CCCNC(=N)N)C(=O)N[C@@H]([C@@H](C)O)C(=O)N1)C(=O)N[C@@H](CC(C)C)C(N)=O (Ac-[βAla]FKV[S5]RRT[S5]ARYRE[Nle]L-NH2; staple (Z) 5-9) | Active | – | – | – | – | – | – | –
4 | CCCC[C@H](NC(=O)[C@H](CCC(=O)O)NC(=O)[C@H](CCCNC(=N)N)NC(=O)[C@H](Cc1ccc(O)cc1)NC(=O)[C@H](CCCCN)NC(=O)[C@H](C)NC(=O)[C@@H](NC(=O)[C@@H](NC(=O)[C@H](CCCNC(=N)N)NC(=O)[C@H](CCCNC(=N)N)NC(=O)[C@H](C)NC(=O)[C@@H](NC(=O)[C@H](CCCCN)NC(=O)[C@H](Cc1ccccc1)NC(=O)CCNC(C)=O)C(C)C)[C@@H](C)O)C(C)C)C(=O)N[C@@H](CC(C)C)C(N)=O (Ac-[βAla]FKVARRTVAKYRE[Nle]L-NH2) | – | 0.12 | – | – | – | – | – | –
5 | CCCC[C@H](NC(=O)[C@H](CCC(=O)O)NC(=O)[C@H](CCCNC(=N)N)NC(=O)[C@H](Cc1ccc(O)cc1)NC(=O)[C@H](CCCCN)NC(=O)[C@H](C)NC(=O)[C@]1(C)CCC/C=C\CCC[C@](C)(NC(=O)[C@@H](NC(=O)[C@H](CCCNC(=N)N)NC(=O)[C@H](Cc2ccccc2)NC(=O)CCNC(C)=O)C(C)C)C(=O)N[C@@H](CCCNC(=N)N)C(=O)N[C@@H](CCCNC(=N)N)C(=O)N[C@@H]([C@@H](C)O)C(=O)N1)C(=O)N[C@@H](CC(C)C)C(N)=O (Ac-[βAla]FRV[S5]RRT[S5]AKYRE[Nle]L-NH2; staple (Z) 5-9) | Active | 1.5 | > 32 | Non-Toxic | 346 | 80% | 20 | –
6 | CCCC[C@H](NC(=O)[C@H](CCC(=O)O)NC(=O)[C@H](CCCNC(=N)N)NC(=O)[C@]1(C)CCC/C=C\CCC[C@](C)(NC(=O)[C@H](CCCNC(=N)N)NC(=O)[C@H](CCCNC(=N)N)NC(=O)[C@H](C)NC(=O)[C@@H](NC(=O)[C@H](CCCCN)NC(=O)[C@H](Cc2ccccc2)NC(=O)CCNC(C)=O)C(C)C)C(=O)N[C@@H](C(C)C)C(=O)N[C@@H](C)C(=O)N[C@@H](CCCCN)C(=O)N1)C(=O)N[C@@H](CC(C)C)C(N)=O (Ac-[βAla]FKVARR[S5]VAK[S5]RE[Nle]L-NH2; staple (Z) 8-12) | Active | 10.7 | > 32 | Non-Toxic | 366 | Active | – | –
7 | CCCC[C@H](NC(=O)[C@H](CCC(=O)O)NC(=O)[C@H](CCCNC(=N)N)NC(=O)[C@H](Cc1ccc(O)cc1)NC(=O)[C@H](CCCCN)NC(=O)[C@H](C)NC(=O)[C@]1(C)CCC/C=C\CCC[C@](C)(NC(=O)[C@H](CNC(=O)[C@H](CCCCN)NC(=O)[C@H](Cc2ccccc2)NC(=O)CCNC(C)=O)C(C)C)C(=O)N[C@@H](CCCNC(=N)N)C(=O)N[C@@H](CCCNC(=N)N)C(=O)N[C@@H]([C@@H](C)O)C(=O)N1)C(N)=O (Ac-[βAla]FK[X1][S5]RRT[S5]AKYRE[Nle]-NH2; staple (Z) 5-9) | Active | 35 | > 32 | Non-Toxic | 385 | Active | – | –
8 | CCCC[C@H](NC(=O)[C@H](CCC(=O)O)NC(=O)[C@H](CCCNC(=N)N)NC(=O)[C@H](Cc1ccc(O)cc1)NC(=O)[C@H](CCCCN)NC(=O)[C@H](C)NC(=O)[C@]1(C)CCC/C=C\CCC[C@](C)(NC(=O)[C@@H](NC(=O)[C@H](CCCCN)NC(=O)[C@H](Cc2ccccc2)NC(=O)CCNC(C)=O)C(C)C)C(=O)N[C@@H](CCCCN)C(=O)N[C@@H](CCCNC(=N)N)C(=O)N[C@@H]([C@@H](C)O)C(=O)N1)C(=O)N[C@@H](CC(C)C)C(N)=O (Ac-[βAla]FKV[S5]KRT[S5]AKYRE[Nle]L-NH2; staple (Z) 5-9) | Active | 3.3 | > 32 | – | 1680 | – | – | –
9 | CCCC[C@H](NC(=O)[C@H](CCC(=O)O)NC(=O)[C@H](CCCNC(=N)N)NC(=O)[C@H](Cc1ccc(O)cc1)NC(=O)[C@H](CCCCN)NC(=O)[C@H](C)NC(=O)[C@]1(C)CCC/C=C\CCC[C@](C)(NC(=O)[C@@H](NC(=O)[C@H](CCCCN)NC(=O)[C@H](Cc2ccccc2)NC(=O)CCNC(C)=O)C(C)C)C(=O)N[C@@H](CCCNC(=N)N)C(=O)N[C@@H](CCCCN)C(=O)N[C@@H]([C@@H](C)O)C(=O)N1)C(=O)N[C@@H](CC(C)C)C(N)=O (Ac-[βAla]FKV[S5]RKT[S5]AKYRE[Nle]L-NH2; staple (Z) 5-9) | Active | 3.3 | > 32 | – | 947 | – | – | –
10 | CCCC[C@H](NC(=O)[C@H](CCC(=O)O)NC(=O)[C@H](CCCNC(=N)N)NC(=O)[C@@H](Cc1ccc(O)cc1)NC(=O)[C@H](CCCCN)NC(=O)[C@H](C)NC(=O)[C@]1(C)CCC/C=C\CCC[C@](C)(NC(=O)[C@@H](NC(=O)[C@H](CCCCN)NC(=O)CCNC(C)=O)C(C)C)C(=O)N[C@@H](CCCNC(=N)N)C(=O)N[C@@H](CCCNC(=N)N)C(=O)N[C@@H]([C@@H](C)O)C(=O)N1)C(=O)N[C@@H](CC(C)C)C(N)=O | Active | – | – | – | – | – | – | –
11 | CCCC[C@H](NC(=O)[C@H](CCC(=O)O)NC(=O)[C@H](CCCNC(=N)N)NC(=O)[C@H](Cc1ccc(O)cc1)NC(=O)[C@H](CCCCN)NC(=O)[C@H](C)NC(=O)[C@]1(C)CCC/C=C\CCC[C@](C)(NC(=O)[C@@H](NC(=O)[C@H](CCCN)NC(=O)[C@H](Cc2ccccc2)NC(=O)CCNC(C)=O)C(C)C)C(=O)N[C@@H](CCCNC(=N)N)C(=O)N[C@@H](CCCNC(=N)N)C(=O)N[C@@H]([C@@H](C)O)C(=O)N1)C(=O)N[C@@H](CC(C)C)C(N)=O (Ac-[βAla]F[Orn]V[S5]RRT[S5]AKYRE[Nle]L-NH2; staple (Z) 5-9) | Active | – | – | – | – | – | – | –
12 | CCCC[C@H](NC(=O)[C@H](CCC(=O)O)NC(=O)[C@H](CCCNC(=N)N)NC(=O)[C@H](Cc1ccc(O)cc1)NC(=O)[C@H](CCCCN)NC(=O)[C@H](C)NC(=O)[C@]1(C)CCC/C=C\CCC[C@](C)(NC(=O)[C@H](Cc2ccccc2)NC(=O)[C@H](CCCCN)NC(=O)[C@H](Cc2ccccc2)NC(=O)CCNC(C)=O)C(=O)N[C@@H](CCCNC(=N)N)C(=O)N[C@@H](CCCNC(=N)N)C(=O)N[C@@H]([C@@H](C)O)C(=O)N1)C(=O)N[C@@H](CC(C)C)C(N)=O (Ac-[βAla]FKF[S5]RRT[S5]AKYRE[Nle]L-NH2; staple (Z) 5-9) | Active | – | – | – | – | – | – | –
13 | CCCC[C@H](NC(=O)[C@H](CCC(=O)O)NC(=O)[C@H](CCCNC(=N)N)NC(=O)[C@H](Cc1ccc(O)cc1)NC(=O)[C@H](CCCCN)NC(=O)[C@H](C)NC(=O)[C@]1(C)CCC/C=C\CCC[C@](C)(NC(=O)[C@@H](NC(=O)[C@H](CCCCN)NC(=O)[C@H](Cc2ccccc2)NC(=O)CCNC(C)=O)C(C)C)C(=O)N[C@@H](CCCNC(=N)N)C(=O)N[C@@H](CCCNC(=N)N)C(=O)N[C@@H]([C@@H](C)O)C(=O)N1)C(=O)N[C@@H](CC(C)C)C(N)=O (Ac-[βAla]FKV[S5]RRT[S5]AKYRE[Nle]L-NH2; staple (Z) 5-9) | 75% | 6.6 | > 32 | Non-Toxic | 834 | – | – | 1140
14 | CCCC[C@H](NC(=O)[C@H](CCC(=O)O)NC(=O)[C@H](CCCNC(=N)N)NC(=O)[C@H](Cc1ccc(O)cc1)NC(=O)[C@H](CCCCN)NC(=O)CNC(=O)[C@]1(C)CCC/C=C\CCC[C@](C)(NC(=O)[C@@H](NC(=O)[C@H](CCCCN)NC(=O)[C@H](Cc2ccccc2)NC(=O)CCNC(C)=O)C(C)C)C(=O)N[C@@H](CCCNC(=N)N)C(=O)N[C@@H](CCCNC(=N)N)C(=O)N[C@@H]([C@@H](C)O)C(=O)N1)C(=O)N[C@@H](CC(C)C)C(N)=O (Ac-[βAla]FKV[S5]RRT[S5]GKYRE[Nle]L-NH2; staple (Z) 5-9) | Active | 0.53 | > 32 | Non-Toxic | 376 | 80% | 10 | –
